Among the data in PubChem BioAssay (NCI) are GI50 and TGI values, retold here.

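Cells were grown in 96-well plates and exposed to each compound for 48 hours at five concentrations; endpoints were interpolated linearly between bracketing concentrations, or set to the highest concentration if not reached. Abbreviation: GI50, concentration required for 50% inhibition of growth. TGI: concentration producing complete growth inhibition.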

Test systems include TK-10 renal; NCI-H226 lung; HCT-116 colon; A549 NSCLC; NCI-H23 lung; HT29 colon; SF-268 CNS; HCC-2998 colon.
What all share (test): NCI tumour cell line growth inhibition, 48 h

As to `CC1=C(C)C2(O)C(=C(C)C1=O)/C(=C(/O)c1ccccc1)c1nc3ccccc3n12` (stereo unspecified), the GI50 was 20.1 µM in the assay with TK-10 renal; 23.6 µM with NCI-H226 lung; 29.4 µM with HCT-116 colon; 19.3 µM in the assay on A549 NSCLC; 15 µM in the assay with NCI-H23 lung; 32.5 µM in the assay on HT29 colon. Besides, the GI50 with SF-268 CNS was 35.7 µM. The TGI in the assay on TK-10 renal was 58.9 µM; in the assay with NCI-H226 lung, 58.1 µM; with HCT-116 colon, 72 µM; in the assay with A549 NSCLC it was 44.4 µM; with NCI-H23 lung it was 29.9 µM; with HT29 colon, above 100 µM. This compound also showed a TGI in the assay on SF-268 CNS above 100 µM.
Turning to `CCOC(=O)c1cnn2c3ccccc3n(S(=O)(=O)c3ccc(OC)cc3)c12`, the GI50 with TK-10 renal is 25.2 µM; with NCI-H226 lung it was 2.6 µM; in the assay with HCT-116 colon it was 0.305 µM; with A549 NSCLC, 0.483 µM; in the assay with NCI-H23 lung, 0.393 µM; with HT29 colon, 0.31 µM. For the same compound, the GI50 in the assay on SF-268 CNS was 2.33 µM; in the assay on HCC-2998 colon it was 0.349 µM. The TGI is above 100 µM in the assay with TK-10 renal; above 100 µM in the assay with NCI-H226 lung; above 50.4 µM with HCT-116 colon; above 100 µM with A549 NSCLC; above 100 µM with NCI-H23 lung; above 100 µM in the assay with HT29 colon. In addition, the values for the TGI in the assay on SF-268 CNS and in the assay with HCC-2998 colon were above 100 µM and 30.1 µM, respectively.
`O=C1c2ccccc2C(=O)c2c(NCC3CO3)ccc(NCC3CO3)c21` (stereo unspecified): the TGI in the assay on TK-10 renal stood at 45 µM; with NCI-H226 lung, 35.4 µM; with HCT-116 colon it was 1.21 µM; in the assay on A549 NSCLC, 58.8 µM; with NCI-H23 lung, 8.71 µM; with HT29 colon, 12.8 µM. For the same compound, the TGI in the assay with HCC-2998 colon was above 81.4 µM.
For the compound `COc1ccc(Cn2cc3c(c2-c2ccccc2)CCc2cnoc2-3)cc1N`, the GI50 with TK-10 renal is 0.626 µM; in the assay on NCI-H226 lung, 2.24 µM; with HCT-116 colon it was 0.0996 µM; with A549 NSCLC, 0.224 µM; with NCI-H23 lung it was 0.441 µM; with HT29 colon it was 1.78 µM. Moreover, the values for the GI50 with SF-268 CNS and in the assay on HCC-2998 colon were 0.812 µM and 0.496 µM, respectively. Also, the TGI is above 100 µM in the assay on TK-10 renal; above 100 µM with NCI-H226 lung; above 33.9 µM in the assay on HCT-116 colon; above 100 µM with A549 NSCLC; above 100 µM in the assay on NCI-H23 lung; 15.1 µM with HT29 colon. Moreover, the TGI in the assay on SF-268 CNS and with HCC-2998 colon was above 100 µM in each case.
Turning to `O=C(/C=C/C12c3ccccc3C(c3ccccc31)C1C(=O)NC(=O)C12)c1ccc(Cl)cc1` (stereo unspecified), the GI50 was 1.92 µM in the assay on TK-10 renal; 1.92 µM in the assay on NCI-H226 lung; 1.23 µM in the assay with HCT-116 colon; 2.4 µM with A549 NSCLC; 1.78 µM in the assay with NCI-H23 lung; 1.99 µM with SF-268 CNS. The GI50 with HCC-2998 colon is 1.69 µM. In addition, the TGI in the assay with TK-10 renal was 3.52 µM; in the assay with NCI-H226 lung, 5 µM; with HCT-116 colon it was 2.61 µM; in the assay with A549 NSCLC, 10.1 µM; in the assay with NCI-H23 lung it was 3.83 µM; with SF-268 CNS it was 5.31 µM. Besides, the TGI in the assay on HCC-2998 colon stood at 3.37 µM.
`CN(C)c1ccc(/C=c2/c3ccccc3n3c2c2cc(F)ccc2[n+]3C)cc1`: the GI50 with TK-10 renal is 3.83 µM; with HCT-116 colon, 4.78 µM; with A549 NSCLC it was 6.04 µM; in the assay on NCI-H23 lung, 14.1 µM; with HT29 colon, 3.49 µM; in the assay on SF-268 CNS, 3.38 µM. For the same compound, the TGI is 14.7 µM in the assay on TK-10 renal; above 100 µM in the assay with HCT-116 colon; 27.2 µM with A549 NSCLC; 30.9 µM in the assay with NCI-H23 lung; 40.8 µM with HT29 colon; 15.7 µM in the assay on SF-268 CNS. This compound also showed a TGI with HCC-2998 colon of 11.4 µM.
On to `c1ccc([As]=[As]c2ccccc2)cc1` (stereo unspecified), for which the GI50 with TK-10 renal is 1.61 µM; with NCI-H226 lung, 1.46 µM; with HCT-116 colon it was 1.14 µM; with A549 NSCLC, 1.87 µM; in the assay with HT29 colon, 1.74 µM; in the assay on SF-268 CNS, 0.886 µM. Also, the GI50 with HCC-2998 colon was 1.72 µM. Besides, the TGI in the assay on TK-10 renal was determined as 3.38 µM; in the assay on NCI-H226 lung, 4.15 µM; in the assay with HCT-116 colon, 3.7 µM; in the assay with A549 NSCLC, 3.9 µM; in the assay with HT29 colon, 3.61 µM; in the assay with SF-268 CNS it was 2.45 µM. The TGI in the assay on HCC-2998 colon was found to be 3.41 µM.
For the compound `CC12CCC3c4cc(Br)c(O)c(Br)c4CCC3C1CCC2O` (stereo unspecified), the TGI in the assay with TK-10 renal was 43.1 µM; in the assay with NCI-H226 lung, 34.5 µM; in the assay with HCT-116 colon, above 100 µM; in the assay with A549 NSCLC, 40.9 µM; in the assay on HT29 colon, 29.1 µM; with SF-268 CNS it was 49.6 µM. The TGI with HCC-2998 colon was 25.3 µM.
Regarding `Cn1c(=S)c2[nH]c(SCCN3C(=O)c4ccccc4C3=O)nc2n(C)c1=O`, the TGI in the assay with TK-10 renal, in the assay on NCI-H226 lung, with HCT-116 colon, in the assay with A549 NSCLC, with NCI-H23 lung and with HT29 colon was above 100 µM throughout. In addition, the TGI in the assay with SF-268 CNS is above 100 µM.
Regarding `NNC(=O)c1ccc(OCc2nc3ccccc3[nH]2)cc1`, the TGI with TK-10 renal, with NCI-H226 lung, in the assay with HCT-116 colon, with A549 NSCLC, in the assay with NCI-H23 lung and in the assay with HT29 colon was above 100 µM in each case. This compound had a TGI in the assay with SF-268 CNS above 100 µM.
With `CN(C)c1ccc(C(c2ccc(Cl)cc2)c2ccc(N(C)C)cc2)cc1`, the TGI in the assay with TK-10 renal, in the assay with HCT-116 colon, in the assay with A549 NSCLC, in the assay with NCI-H23 lung, with HT29 colon and in the assay on SF-268 CNS was above 100 µM throughout. In the assay on HCC-2998 colon, this compound returned a TGI above 100 µM.
With `COc1cccc(/C(C)=N/NC(=O)CSc2nc3ccccc3c(=O)n2CCc2ccc(S(N)(=O)=O)cc2)c1`, the GI50 in the assay on TK-10 renal is 2.36 µM; with NCI-H226 lung it was 3.29 µM; with A549 NSCLC, 2.01 µM; in the assay on NCI-H23 lung it was 2.86 µM; with HT29 colon it was 2.36 µM; in the assay with SF-268 CNS, 2.68 µM. Also, the GI50 in the assay with HCC-2998 colon is 24 µM. In addition, the TGI in the assay on TK-10 renal stood at 5.42 µM; with NCI-H226 lung, 13 µM; with A549 NSCLC, 3.93 µM; in the assay on NCI-H23 lung, 8.47 µM; in the assay with HT29 colon, 5.31 µM; in the assay with SF-268 CNS, 7.32 µM. In the assay on HCC-2998 colon, this compound gave a TGI of 62.9 µM.
